This is an account of results in ChEMBL document CHEMBL1201862, “PubChem BioAssay data set” (2004).

Experiment [1] deals with T1, Histone-lysine N-methyltransferase NSD2 (Homo sapiens, UniProt O96028).
T1 sequence (O96028 whole entry): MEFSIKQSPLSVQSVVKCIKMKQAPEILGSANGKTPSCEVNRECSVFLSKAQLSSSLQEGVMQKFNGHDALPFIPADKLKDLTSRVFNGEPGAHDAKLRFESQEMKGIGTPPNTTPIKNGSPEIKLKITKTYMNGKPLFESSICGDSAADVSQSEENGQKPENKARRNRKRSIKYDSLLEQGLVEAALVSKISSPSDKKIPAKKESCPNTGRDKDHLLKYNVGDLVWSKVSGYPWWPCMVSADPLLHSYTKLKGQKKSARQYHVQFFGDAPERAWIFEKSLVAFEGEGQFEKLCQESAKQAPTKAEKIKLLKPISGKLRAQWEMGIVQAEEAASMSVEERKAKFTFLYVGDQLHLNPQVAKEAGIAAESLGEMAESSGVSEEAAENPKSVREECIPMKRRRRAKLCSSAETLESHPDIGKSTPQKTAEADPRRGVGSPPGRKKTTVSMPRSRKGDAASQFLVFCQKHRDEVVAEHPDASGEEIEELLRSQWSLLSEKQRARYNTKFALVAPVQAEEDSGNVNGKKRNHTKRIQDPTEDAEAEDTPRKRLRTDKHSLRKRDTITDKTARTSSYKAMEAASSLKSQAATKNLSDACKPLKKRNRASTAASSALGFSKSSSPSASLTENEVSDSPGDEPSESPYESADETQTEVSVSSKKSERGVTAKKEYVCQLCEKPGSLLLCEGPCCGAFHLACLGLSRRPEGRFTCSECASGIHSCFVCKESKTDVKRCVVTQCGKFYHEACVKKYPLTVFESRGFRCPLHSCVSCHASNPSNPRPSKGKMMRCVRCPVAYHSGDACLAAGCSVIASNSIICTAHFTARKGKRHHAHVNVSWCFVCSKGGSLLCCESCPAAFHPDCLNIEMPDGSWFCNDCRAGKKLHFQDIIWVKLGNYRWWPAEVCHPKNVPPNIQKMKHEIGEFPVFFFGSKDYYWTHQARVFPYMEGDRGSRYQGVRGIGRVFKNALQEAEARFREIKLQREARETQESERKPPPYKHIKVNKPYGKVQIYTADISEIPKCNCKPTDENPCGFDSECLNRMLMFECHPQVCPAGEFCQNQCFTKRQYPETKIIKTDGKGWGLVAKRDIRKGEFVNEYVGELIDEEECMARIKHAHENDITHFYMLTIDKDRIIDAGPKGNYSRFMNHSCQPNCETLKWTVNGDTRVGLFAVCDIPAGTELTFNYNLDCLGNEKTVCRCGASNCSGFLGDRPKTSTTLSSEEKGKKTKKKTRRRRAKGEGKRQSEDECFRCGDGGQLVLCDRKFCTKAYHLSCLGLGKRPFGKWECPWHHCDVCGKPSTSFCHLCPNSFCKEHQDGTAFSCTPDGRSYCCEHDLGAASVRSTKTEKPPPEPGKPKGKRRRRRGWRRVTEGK
Format: biochemical.

Experiment [2] addresses T2, Apoptotic protease-activating factor 1 (Homo sapiens, UniProt O14727).
T2 sequence (O14727 whole entry): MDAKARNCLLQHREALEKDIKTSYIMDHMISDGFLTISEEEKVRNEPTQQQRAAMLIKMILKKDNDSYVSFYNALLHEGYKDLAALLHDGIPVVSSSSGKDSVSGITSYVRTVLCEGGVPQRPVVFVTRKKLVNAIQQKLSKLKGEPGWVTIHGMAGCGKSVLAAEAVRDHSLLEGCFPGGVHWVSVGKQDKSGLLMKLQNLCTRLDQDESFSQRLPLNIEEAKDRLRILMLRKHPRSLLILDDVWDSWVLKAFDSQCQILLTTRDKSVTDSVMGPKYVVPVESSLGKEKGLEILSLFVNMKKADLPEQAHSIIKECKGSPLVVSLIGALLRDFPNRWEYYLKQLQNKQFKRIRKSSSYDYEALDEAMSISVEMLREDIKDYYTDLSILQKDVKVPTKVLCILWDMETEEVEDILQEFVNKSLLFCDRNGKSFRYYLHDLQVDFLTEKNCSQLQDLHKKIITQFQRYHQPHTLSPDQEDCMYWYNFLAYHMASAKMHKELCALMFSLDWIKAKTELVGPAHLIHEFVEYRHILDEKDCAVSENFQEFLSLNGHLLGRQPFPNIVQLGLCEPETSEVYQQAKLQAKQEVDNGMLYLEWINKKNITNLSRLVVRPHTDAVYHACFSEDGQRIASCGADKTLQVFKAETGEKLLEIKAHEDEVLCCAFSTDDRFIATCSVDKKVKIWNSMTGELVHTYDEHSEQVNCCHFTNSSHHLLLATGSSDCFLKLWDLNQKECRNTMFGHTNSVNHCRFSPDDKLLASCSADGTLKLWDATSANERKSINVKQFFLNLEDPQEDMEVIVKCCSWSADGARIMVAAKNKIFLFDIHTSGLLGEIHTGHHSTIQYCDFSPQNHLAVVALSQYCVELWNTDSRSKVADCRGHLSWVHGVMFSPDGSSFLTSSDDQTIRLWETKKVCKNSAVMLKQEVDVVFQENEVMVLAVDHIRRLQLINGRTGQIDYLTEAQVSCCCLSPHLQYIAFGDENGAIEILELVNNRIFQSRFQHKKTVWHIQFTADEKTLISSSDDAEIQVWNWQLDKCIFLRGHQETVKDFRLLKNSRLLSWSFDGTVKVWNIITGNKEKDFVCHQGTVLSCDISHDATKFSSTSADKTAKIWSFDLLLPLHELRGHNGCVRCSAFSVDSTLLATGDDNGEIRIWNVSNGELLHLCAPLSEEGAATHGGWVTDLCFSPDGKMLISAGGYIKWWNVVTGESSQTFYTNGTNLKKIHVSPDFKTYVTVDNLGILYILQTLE
Format: functional.

The target of experiment [3] is T3, Sentrin-specific protease 8 (Homo sapiens, UniProt Q96LD8).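 Note: kinetic enzyme assay of SENP8 cleaving a Nedd8 protein substrate, dose-response confirmation of screening hits.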
T3 sequence (Q96LD8 whole entry): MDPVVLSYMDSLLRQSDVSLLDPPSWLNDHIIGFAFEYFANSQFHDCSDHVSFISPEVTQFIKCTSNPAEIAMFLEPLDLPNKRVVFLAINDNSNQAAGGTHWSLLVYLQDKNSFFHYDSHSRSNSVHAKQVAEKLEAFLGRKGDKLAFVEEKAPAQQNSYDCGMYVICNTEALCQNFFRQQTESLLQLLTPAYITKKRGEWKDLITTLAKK
Format: functional.

Experiment [4] concerns the target Glucose-6-phosphate 1-dehydrogenase (Homo sapiens, UniProt P11413). As to the kind of experiment: inhibition of Homo sapiens G6PD, dose series – biochemical, fluorescence, selectivity assay for P. falciparum G6PD inhibitor project, dose response (AID 504792). It is filed as functional.
The subject of another experiment is INS1. As to the kind of experiment: INS-1E survival protection against cytokine death – cell-based, luminescence, retest, dose response (AID 449756).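 Note: cell death triggered by IL-1 beta plus TNF-alpha plus IFN-gamma mixture; protective hits raise ATP signal compared with cytokine alone wells.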 Format: functional. The note with it: Rattus norvegicus.
The test system of the next experiment is Vero. As to the kind of experiment: viability of Vero cells under compound – cytotoxicity control for flavivirus capping enzyme inhibitors (AID 588742). Format: functional. The following applies: Chlorocebus sabaeus.
Experiment [5] has as its target Induced myeloid leukemia cell differentiation protein Mcl-1 (Homo sapiens, UniProt Q07820). Format: functional.

Activity calls are given as the source filed them.

A word on the AC50: it is the concentration at which the activity in the assay is half-maximal. As a reminder, the IC50 is the concentration that gives 50% inhibition. The term CC50 denotes the concentration that lowers cell viability or growth by half.

Chain of Glucose-6-phosphate 1-dehydrogenase (P11413 whole entry): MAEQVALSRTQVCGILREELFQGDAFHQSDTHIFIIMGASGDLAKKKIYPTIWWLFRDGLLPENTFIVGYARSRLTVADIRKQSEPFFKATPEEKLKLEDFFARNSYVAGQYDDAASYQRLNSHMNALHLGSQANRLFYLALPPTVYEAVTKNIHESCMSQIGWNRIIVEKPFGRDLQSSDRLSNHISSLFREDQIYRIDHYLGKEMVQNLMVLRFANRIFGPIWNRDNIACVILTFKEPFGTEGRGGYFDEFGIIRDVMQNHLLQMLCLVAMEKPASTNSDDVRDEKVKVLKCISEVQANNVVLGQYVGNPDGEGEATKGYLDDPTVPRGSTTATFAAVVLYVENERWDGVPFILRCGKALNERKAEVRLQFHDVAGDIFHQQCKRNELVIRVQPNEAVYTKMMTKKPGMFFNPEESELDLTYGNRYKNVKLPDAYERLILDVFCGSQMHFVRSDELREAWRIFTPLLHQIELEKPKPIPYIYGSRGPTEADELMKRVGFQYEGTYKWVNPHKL
Chain of Induced myeloid leukemia cell differentiation protein Mcl-1 (Q07820 whole entry): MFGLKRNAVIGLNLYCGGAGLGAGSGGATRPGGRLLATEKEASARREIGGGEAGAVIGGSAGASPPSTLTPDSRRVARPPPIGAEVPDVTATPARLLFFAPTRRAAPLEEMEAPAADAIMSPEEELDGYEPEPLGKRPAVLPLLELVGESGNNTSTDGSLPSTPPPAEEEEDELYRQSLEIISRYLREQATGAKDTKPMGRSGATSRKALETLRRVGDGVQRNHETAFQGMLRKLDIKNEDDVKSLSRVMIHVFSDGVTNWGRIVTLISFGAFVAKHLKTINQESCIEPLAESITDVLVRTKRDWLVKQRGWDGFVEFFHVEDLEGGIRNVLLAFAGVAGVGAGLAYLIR

For the compound `CC(C)=CCC1=C(OCC(=O)O)C(=O)c2ccccc2C1=O`, the half-maximal activity concentration (AC50) in experiment [1] was 3.99 µM (active). In addition, in experiment [2], the IC50 was 6.11 µM (active).

Turning to `Cc1[nH][nH]c(=O)c1C(c1c(C)[nH][nH]c1=O)c1cn(Cc2ccccc2Cl)c2ccccc12`, the AC50 in experiment [1] was 17.8 µM (active). The IC50 in experiment [3] was 4.89 µM (active).

With `Cc1cccc(NC2=C(NC(=O)c3ccccc3)C(=O)c3ccccc3C2=O)c1`, the IC50 in experiment [4] is > 80 µM (inactive); in experiment [2] it was 13.4 µM (active); in experiment [5], 2.86 µM (active). The AC50 with INS1 is 7.52 µM (active). Further, in the experiment on Vero, the CC50 is > 40 µM (active).
